Experimental data from patent publication US20130267494A1, “1,4-OXAZEPANE DERIVATIVES” (priority 2010, published 2013).

Legend:
[1] = molecular target: T1, human norepinephrine transporter (Homo sapiens, UniProt P23975); test: Inhibitory action on human norepinephrine transporter ([3H]-norepinephrine uptake in CHO cells); assay type: cell-based; details: CHO, compound 1 μM; relative to inhibitory activity of 10 μM DMI as 100%; read-out: inhibitory rate (%)
T1 construct: expressed in transfected cells
Outline: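 Stably transfected CHO-K1 cells plated overnight, then given test compound and [3H]-norepinephrine (20 nM final, from 200 nM) in HEPES-buffered saline with 0.5% BSA for 45 min. After PBS washes, retained radioactivity counted by scintillation. Inhibition at 10 μM or 1 μM compound expressed relative to 10 μM DMI as 100%.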

SD female rats = test: Measurement of urethral resistance increasing effect (leak point pressure, oral administration); assay type: in vivo, rat
Procedure: The urethral resistance increasing effect in rat was measured by a modified method of Matsumoto et al. (WO2009/063992) as follows. That is, SD female rats (CLEA Japan, Inc.) were anesthetized with isoflurane (1.0%; Abbott), and the spinal cord was transected at Th8-9 to avoid the voiding reflex. After laparotomy, an intravesical pressure measurement catheter and a saline infusion catheter (PE-100; Clay Adams) were inserted into the bladder. Thereafter, the abdomen of the rat was closed with aronalpha A “Sankyo” (Daiichi Sankyo). The rat with an inserted catheter was placed in a Bollman cage (KN-326 Bollman cage TYPE III; Natsume). The intravesical pressure measurement catheter was connected to a computer via a pressure transducer (DX-100; Nihon Koden), an amplifier (RPM-6008M; Nihon Koden/303638; SAN-EI), and a multi-channel data analyzer (MP150/MP100; Biopack), and changes in the intravesical pressure were recorded on a hard disc at a frequency of 100 samples/sec. The saline infusion catheter was connected to a 50 mL syringe (Terumo) filled with saline colored with Evans Blue (Wako). The saline was infused into the bladder from the 50 mL syringe filled with saline at a rate of 0.1 mL/sec by using an infusion pump (Kds100; KD Scientific). When the saline leaked from the urethral orifice, infusion was discontinued, and the saline in the bladder was released. The maximum pressure observed during infusion of saline into the bladder and leakage thereof was taken as an LPP (Leak point pressure) value. The measurement was repeated until the LPP value was stabilized, and an average of continuous three stable LPP values was taken as the result. In addition, the measurement of drug effect was started 1 hr after the animal was placed in the Bollman cage. The LPP value (Pre value) was measured, a drug was orally administered, and the measurement of LPP value (Post value) was again started 15 min, 30 min, 1 hr, 2 hr and 4 hr after administration. The urethral resistance increasing effect by the drug was shown by the difference between the LPP value (Post value) and LPP value (Pre value). The drug was orally administered at 2.0 mL/kg, using 0.5% methylcellulose as a vehicle. For detection of a significant difference in the urethral resistance increasing effect by the drug as compared to the vehicle, the following method was used. For comparison of 3 or more groups, the Williams' test was used for a parametric test, and the Shirley-Williams' test was used for a non-parametric test. For comparison of 2 groups, the Student's t-test was used for a parametric test, and the […] was used for a non-parametric test.

T1 sequence (P23975 whole entry): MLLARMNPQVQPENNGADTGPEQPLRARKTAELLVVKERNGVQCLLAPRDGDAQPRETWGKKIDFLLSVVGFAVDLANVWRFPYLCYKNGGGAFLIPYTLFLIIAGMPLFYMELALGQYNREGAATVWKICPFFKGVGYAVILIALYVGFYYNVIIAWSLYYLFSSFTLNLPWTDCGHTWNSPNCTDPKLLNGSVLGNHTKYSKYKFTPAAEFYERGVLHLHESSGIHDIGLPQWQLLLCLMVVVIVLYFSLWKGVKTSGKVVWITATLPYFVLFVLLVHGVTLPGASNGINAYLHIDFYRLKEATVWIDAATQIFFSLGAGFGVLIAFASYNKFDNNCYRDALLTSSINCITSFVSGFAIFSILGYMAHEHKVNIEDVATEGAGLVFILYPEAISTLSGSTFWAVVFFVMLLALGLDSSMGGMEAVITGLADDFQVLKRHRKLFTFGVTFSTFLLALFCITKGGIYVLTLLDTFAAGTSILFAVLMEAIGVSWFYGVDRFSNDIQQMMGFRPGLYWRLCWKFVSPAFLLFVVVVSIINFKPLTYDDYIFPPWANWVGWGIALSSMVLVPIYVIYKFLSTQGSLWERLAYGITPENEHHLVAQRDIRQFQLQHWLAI

Compound	inhibition at 1 µM [1]	urethral resistance increasing effect (cmH2O) (SD female rats; 3.0 mg/kg oral, 15 min later)	urethral resistance increasing effect (cmH2O) (SD female rats; 3.0 mg/kg oral, 30 min later)	urethral resistance increasing effect (cmH2O) (SD female rats; 10.0 mg/kg oral, 15 min later)	urethral resistance increasing effect (cmH2O) (SD female rats; 10.0 mg/kg oral, 30 min later)
O=c1[nH]c(-c2ccccc2O[C@@H]2CNCCO[C@H]2c2ccc(Cl)c(F)c2)no1 [Example 577, 3-(2-{[(6R, 7S)-7-(4-chloro-3-fluoro-phenyl)-1,4-oxazepan-6-yl]oxy}phenyl)-1,2,4-oxadiazol-5(4H)-one]	97%	14.3 ± 3.0 cmH2O	13.1 ± 3.1 cmH2O	18.7 ± 1.8 cmH2O	15.4 ± 1.5 cmH2O
O=c1[nH]c(-c2ncccc2O[C@@H]2CNCCO[C@H]2c2ccc(Cl)c(F)c2)no1 [Example 584, 3-(3-{[(6R, 7S)-7-(4-chloro-3-fluorophenyl)-1,4-oxazepan-6-yl]oxy}pyridin-2-yl)-1,2,4-oxadiazol-5(4H)-one]	107%	9.5 ± 3.5 cmH2O	7.2 ± 2.6 cmH2O	18.4 ± 3.4 cmH2O	16.2 ± 3.3 cmH2O
